Where two headings read alike, the source gives them in different places.
Experiments:
urease [1] = settings: Table 9, granulated urea, soil in Hanover; for % N loss based on fertilized N quantity: 10 days' incubation, inhibitor 0.125% (w/w) based on urea, 20° C.; for % N loss relative to NBTPT without mixing partner / % N loss relative to NPTPT without mixing partner: 10 days, NBTPT/NPTPT series
Description: (§1) The efficacy of the (thio)phosphoric triamides, individually and in combination, was tested by a method based on that of Fenn & Kissel ((1973) Ammonia volatilization from surface applications of ammonium compounds on calcareous soils. Soil Sci. Soc. Am. J. 37, 855-859) for their effect in limiting ammonia volatilization from urea or urea-comprising fertilizers. Three different soils in which ammonia volatilization after urea fertilization is particularly pronounced were used. These soils are distinguished by relatively high pH values of >6.5 and/or low base buffering. […] 200 g of dry soil per incubation vessel were moistened with 5.4 ml of fully demineralized water, and 1.087 g of urea (corresponds to 500 mg of urea-N) were applied in the form of granules. If urea-comprising solutions were tested, the 200 g of soil were moistened with an aqueous urea-comprising solution comprising 1.630 g of urea (corresponds to 750 mg of urea-N), without or with urease inhibitor or combinations of these. The solution was applied dropwise over the entire soil surface, using a pipette. The amount of (thio)phosphoric triamides as individual substances or in combination in different proportions was always a uniform 0.125% (w/w) based on urea. The incubations were accomplished at 20° C. (18-22° C.) in a controlled-environment cabinet. The ammonia collected in the acid trap was determined quantitatively as ammonium using a continuous flow analyzer (from Bran+Luebbe), proceeding by methods with which the skilled worker is familiar.

urease [2] = settings: granulated urea, Limburgerhof soil; for % N loss based on fertilized N quantity: 10 days' incubation, inhibitor 0.125% (w/w) based on urea, 20° C.; for % N loss relative to NBTPT without mixing partner / % N loss relative to NcHTPT without mixing partner / % N loss relative to NPenTPT without mixing partner / % N loss relative to NiBTPT without mixing partner / % N loss relative to NPTPT without mixing partner: 10 days
Description: as §1

urease [3] = settings: Table 10, granulated urea, soil in France; for % N loss based on fertilized N quantity: 10 days' incubation, inhibitor 0.125% (w/w) based on urea, 20° C.; for % N loss relative to NBTPT without mixing partner / % N loss relative to NPTPT without mixing partner: 10 days, NBTPT/NPTPT series
Description: as §1

urease [4] = settings: Limburgerhof soil; for % N loss based on fertilized N quantity: 30% strength urea solution, 10 days' incubation, inhibitor 0.125% (w/w) based on urea, 20° C.; for % N loss relative to NBTPT without mixing partner / % N loss relative to NcHTPT without mixing partner / % N loss relative to NPenTPT without mixing partner / % N loss relative to NiBTPT without mixing partner / % N loss relative to NPTPT without mixing partner / % N loss relative to NNDBTPT without mixing partner / % N loss relative to NNDiTPT without mixing partner: 30% urea solution, 10 days
Description: as §1

[5] = Table 11, comparative experiment
[6] = Table 12, comparative experiment
[7] = Table 12, NBTPT/NNDiBTPT series

CCCCNP(N)(N)=S [NBTPT, N-n-butylthiophosphoric triamide]
% N loss based on fertilized N quantity (urease [1]): 1.32% | % N loss relative to NBTPT without mixing partner (urease [1]): 100% | % N loss relative to NPTPT without mixing partner (urease [1]): 63% | % N loss based on fertilized N quantity (urease [2]; Table 1): 1.54% | % N loss relative to NBTPT without mixing partner (urease [2]; Table 1, NBTPT/NcHTPT series): 100% | % N loss relative to NcHTPT without mixing partner (urease [2]; Table 1, NBTPT/NcHTPT series): 56% | % N loss based on fertilized N quantity (urease [2]; Table 2): 1.54% | % N loss relative to NBTPT without mixing partner (urease [2]; Table 2, NBTPT/NPenTPT series): 100% | % N loss relative to NPenTPT without mixing partner (urease [2]; Table 2, NBTPT/NPenTPT series): 63% | % N loss based on fertilized N quantity (urease [2]; Table 3): 1.54% | % N loss relative to NBTPT without mixing partner (urease [2]; Table 3, NBTPT/NiBTPT series): 100% | % N loss relative to NiBTPT without mixing partner (urease [2]; Table 3, NBTPT/NiBTPT series): 92% | % N loss based on fertilized N quantity (urease [2]; Table 4): 1.54% | % N loss relative to NBTPT without mixing partner (urease [2]; Table 4, NBTPT/NPTPT series): 100% | % N loss relative to NPTPT without mixing partner (urease [2]; Table 4, NBTPT/NPTPT series): 96% | % N loss based on fertilized N quantity (urease [3]): 1.30% | % N loss relative to NBTPT without mixing partner (urease [3]): 100% | % N loss relative to NPTPT without mixing partner (urease [3]): 83% | % N loss based on fertilized N quantity (urease [4]; Table 5): 0.69% | % N loss relative to NBTPT without mixing partner (urease [4]; Table 5, NBTPT/NcHTPT series): 100% | % N loss relative to NcHTPT without mixing partner (urease [4]; Table 5, NBTPT/NcHTPT series): 62% | % N loss based on fertilized N quantity (urease [4]; Table 6): 0.71% | % N loss relative to NBTPT without mixing partner (urease [4]; Table 6, NBTPT/NPenTPT series): 100% | % N loss relative to NPenTPT without mixing partner (urease [4]; Table 6, NBTPT/NPenTPT series): 63% | % N loss based on fertilized N quantity (urease [4]; Table 7): 0.33% | % N loss relative to NBTPT without mixing partner (urease [4]; Table 7, NBTPT/NiBTPT series): 100% | % N loss relative to NiBTPT without mixing partner (urease [4]; Table 7, NBTPT/NiBTPT series): 61% | % N loss based on fertilized N quantity (urease [4]; Table 8): 0.33% | % N loss relative to NBTPT without mixing partner (urease [4]; Table 8, NBTPT/NPTPT series): 100% | % N loss relative to NPTPT without mixing partner (urease [4]; Table 8, NBTPT/NPTPT series): 79% | % N loss based on fertilized N quantity (urease [4]; [5]): 1.90% | % N loss relative to NBTPT without mixing partner (urease [4]; Table 11, NBTPT/NNDBTPT series): 100% | % N loss relative to NNDBTPT without mixing partner (urease [4]; Table 11, NBTPT/NNDBTPT series): 10% | % N loss based on fertilized N quantity (urease [4]; [6]): 1.90% | % N loss relative to NBTPT without mixing partner (urease [4]; [7]): 100% | % N loss relative to NNDiTPT without mixing partner (urease [4]; [7]): 9%

CCCCN(CCCC)P(N)(N)=S [NNDBTPT, N,N-di-n-butylthiophosphoric triamide]
% N loss based on fertilized N quantity (urease [4]; [5]): 19.24% | % N loss relative to NBTPT without mixing partner (urease [4]; Table 11, NBTPT/NNDBTPT series): 1013% | % N loss relative to NNDBTPT without mixing partner (urease [4]; Table 11, NBTPT/NNDBTPT series): 100%

CC(C)CN(CC(C)C)P(N)(N)=S [NNDiBTPT, N,N-di-isobutylthiophosphoric triamide]
% N loss based on fertilized N quantity (urease [4]; [6]): 21.83% | % N loss relative to NBTPT without mixing partner (urease [4]; [7]): 1149% | % N loss relative to NNDiTPT without mixing partner (urease [4]; [7]): 100%

CCCNP(N)(N)=S [NPTPT, N-n-propylthiophosphoric triamide]
% N loss based on fertilized N quantity (urease [1]): 2.08% | % N loss relative to NBTPT without mixing partner (urease [1]): 158% | % N loss relative to NPTPT without mixing partner (urease [1]): 100% | % N loss based on fertilized N quantity (urease [2]; Table 4): 1.60% | % N loss relative to NBTPT without mixing partner (urease [2]; Table 4, NBTPT/NPTPT series): 104% | % N loss relative to NPTPT without mixing partner (urease [2]; Table 4, NBTPT/NPTPT series): 100% | % N loss based on fertilized N quantity (urease [3]): 1.57% | % N loss relative to NBTPT without mixing partner (urease [3]): 121% | % N loss relative to NPTPT without mixing partner (urease [3]): 100% | % N loss based on fertilized N quantity (urease [4]; Table 8): 0.42% | % N loss relative to NBTPT without mixing partner (urease [4]; Table 8, NBTPT/NPTPT series): 127% | % N loss relative to NPTPT without mixing partner (urease [4]; Table 8, NBTPT/NPTPT series): 100%

CCCCCNP(N)(N)=S [NPenTPT, N-pentylthiophosphoric triamide]
% N loss based on fertilized N quantity (urease [2]; Table 2): 2.46% | % N loss relative to NBTPT without mixing partner (urease [2]; Table 2, NBTPT/NPenTPT series): 130% | % N loss relative to NPenTPT without mixing partner (urease [2]; Table 2, NBTPT/NPenTPT series): 100% | % N loss based on fertilized N quantity (urease [4]; Table 6): 1.12% | % N loss relative to NBTPT without mixing partner (urease [4]; Table 6, NBTPT/NPenTPT series): 158% | % N loss relative to NPenTPT without mixing partner (urease [4]; Table 6, NBTPT/NPenTPT series): 100%

NP(N)(=S)NC1CCCCC1 [NcHTPT, N-cyclohexylthiophosphoric triamide]
% N loss based on fertilized N quantity (urease [2]; Table 1): 2.77% | % N loss relative to NBTPT without mixing partner (urease [2]; Table 1, NBTPT/NcHTPT series): 180% | % N loss relative to NcHTPT without mixing partner (urease [2]; Table 1, NBTPT/NcHTPT series): 100% | % N loss based on fertilized N quantity (urease [4]; Table 5): 1.11% | % N loss relative to NBTPT without mixing partner (urease [4]; Table 5, NBTPT/NcHTPT series): 160% | % N loss relative to NcHTPT without mixing partner (urease [4]; Table 5, NBTPT/NcHTPT series): 100%

CC(C)CNP(N)(N)=S [NiBTPT, N-isobutylthiophosphoric triamide]
% N loss based on fertilized N quantity (urease [2]; Table 3): 1.68% | % N loss relative to NBTPT without mixing partner (urease [2]; Table 3, NBTPT/NiBTPT series): 109% | % N loss relative to NiBTPT without mixing partner (urease [2]; Table 3, NBTPT/NiBTPT series): 100% | % N loss based on fertilized N quantity (urease [4]; Table 7): 0.54% | % N loss relative to NBTPT without mixing partner (urease [4]; Table 7, NBTPT/NiBTPT series): 164% | % N loss relative to NiBTPT without mixing partner (urease [4]; Table 7, NBTPT/NiBTPT series): 100%

From patent US8075659B2, “Preparations with improved urease-inhibiting effect and urea-containing fertilizers containing the latter” (BASF SE, priority 2006, dated 2011)
